Laboratory results: ChEMBL document CHEMBL1147965, “Dual irreversible kinase inhibitors: quinazoline-based inhibitors incorporating two independent reactive centers with each targeting different cysteine residues in the kinase domains of EGFR and VEGFR-2” (Bioorg Med Chem, 2007)

Columns and labels:
[1] = target: T1, Vascular endothelial growth factor receptor 2 (Homo sapiens, UniProt P35968); assay: Inhibition of human VEGFR2 in presence of 1 mM ATP
[2] = target: T2, Epidermal growth factor receptor (Homo sapiens, UniProt P00533); assay: Inhibition of human EGFR in presence of 1 uM ATP
T2 sequence (P00533 whole entry): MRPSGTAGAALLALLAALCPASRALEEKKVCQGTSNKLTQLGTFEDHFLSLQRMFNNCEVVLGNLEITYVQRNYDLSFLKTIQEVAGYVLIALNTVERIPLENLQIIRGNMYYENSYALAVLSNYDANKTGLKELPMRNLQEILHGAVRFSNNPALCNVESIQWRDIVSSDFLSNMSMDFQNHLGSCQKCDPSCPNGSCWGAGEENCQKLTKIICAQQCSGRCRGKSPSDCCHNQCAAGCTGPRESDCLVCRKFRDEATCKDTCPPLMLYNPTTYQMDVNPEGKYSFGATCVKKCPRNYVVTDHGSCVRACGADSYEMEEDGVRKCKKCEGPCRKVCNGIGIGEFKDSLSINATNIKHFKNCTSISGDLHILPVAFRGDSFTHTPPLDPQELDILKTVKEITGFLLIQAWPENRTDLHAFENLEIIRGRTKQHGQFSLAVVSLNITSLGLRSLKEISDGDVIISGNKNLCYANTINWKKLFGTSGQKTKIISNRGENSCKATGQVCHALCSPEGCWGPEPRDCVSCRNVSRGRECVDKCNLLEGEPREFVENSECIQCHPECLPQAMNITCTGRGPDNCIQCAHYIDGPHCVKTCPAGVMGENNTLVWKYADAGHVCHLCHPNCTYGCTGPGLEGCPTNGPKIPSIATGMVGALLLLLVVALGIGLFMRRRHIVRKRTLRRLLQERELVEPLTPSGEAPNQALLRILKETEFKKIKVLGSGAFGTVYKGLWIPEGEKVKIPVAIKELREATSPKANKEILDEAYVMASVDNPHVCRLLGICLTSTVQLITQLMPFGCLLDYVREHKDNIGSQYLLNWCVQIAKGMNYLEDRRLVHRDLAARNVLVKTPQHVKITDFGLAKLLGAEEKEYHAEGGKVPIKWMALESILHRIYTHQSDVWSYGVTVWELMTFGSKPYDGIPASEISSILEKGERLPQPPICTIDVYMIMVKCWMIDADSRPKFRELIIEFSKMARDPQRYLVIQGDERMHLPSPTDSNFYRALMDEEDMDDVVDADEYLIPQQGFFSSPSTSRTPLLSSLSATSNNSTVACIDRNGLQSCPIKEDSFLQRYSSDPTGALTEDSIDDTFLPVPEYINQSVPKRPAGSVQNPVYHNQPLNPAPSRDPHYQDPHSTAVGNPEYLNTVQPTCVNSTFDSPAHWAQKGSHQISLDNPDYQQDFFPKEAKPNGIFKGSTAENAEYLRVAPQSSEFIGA

[3] = target: T1, Vascular endothelial growth factor receptor 2; assay: Inhibition of human VEGFR2 in presence of 1 uM ATP
[4] = target: T2, Epidermal growth factor receptor; assay: Inhibition of human EGFR in presence of 1 mM ATP

T1 sequence (P35968 whole entry): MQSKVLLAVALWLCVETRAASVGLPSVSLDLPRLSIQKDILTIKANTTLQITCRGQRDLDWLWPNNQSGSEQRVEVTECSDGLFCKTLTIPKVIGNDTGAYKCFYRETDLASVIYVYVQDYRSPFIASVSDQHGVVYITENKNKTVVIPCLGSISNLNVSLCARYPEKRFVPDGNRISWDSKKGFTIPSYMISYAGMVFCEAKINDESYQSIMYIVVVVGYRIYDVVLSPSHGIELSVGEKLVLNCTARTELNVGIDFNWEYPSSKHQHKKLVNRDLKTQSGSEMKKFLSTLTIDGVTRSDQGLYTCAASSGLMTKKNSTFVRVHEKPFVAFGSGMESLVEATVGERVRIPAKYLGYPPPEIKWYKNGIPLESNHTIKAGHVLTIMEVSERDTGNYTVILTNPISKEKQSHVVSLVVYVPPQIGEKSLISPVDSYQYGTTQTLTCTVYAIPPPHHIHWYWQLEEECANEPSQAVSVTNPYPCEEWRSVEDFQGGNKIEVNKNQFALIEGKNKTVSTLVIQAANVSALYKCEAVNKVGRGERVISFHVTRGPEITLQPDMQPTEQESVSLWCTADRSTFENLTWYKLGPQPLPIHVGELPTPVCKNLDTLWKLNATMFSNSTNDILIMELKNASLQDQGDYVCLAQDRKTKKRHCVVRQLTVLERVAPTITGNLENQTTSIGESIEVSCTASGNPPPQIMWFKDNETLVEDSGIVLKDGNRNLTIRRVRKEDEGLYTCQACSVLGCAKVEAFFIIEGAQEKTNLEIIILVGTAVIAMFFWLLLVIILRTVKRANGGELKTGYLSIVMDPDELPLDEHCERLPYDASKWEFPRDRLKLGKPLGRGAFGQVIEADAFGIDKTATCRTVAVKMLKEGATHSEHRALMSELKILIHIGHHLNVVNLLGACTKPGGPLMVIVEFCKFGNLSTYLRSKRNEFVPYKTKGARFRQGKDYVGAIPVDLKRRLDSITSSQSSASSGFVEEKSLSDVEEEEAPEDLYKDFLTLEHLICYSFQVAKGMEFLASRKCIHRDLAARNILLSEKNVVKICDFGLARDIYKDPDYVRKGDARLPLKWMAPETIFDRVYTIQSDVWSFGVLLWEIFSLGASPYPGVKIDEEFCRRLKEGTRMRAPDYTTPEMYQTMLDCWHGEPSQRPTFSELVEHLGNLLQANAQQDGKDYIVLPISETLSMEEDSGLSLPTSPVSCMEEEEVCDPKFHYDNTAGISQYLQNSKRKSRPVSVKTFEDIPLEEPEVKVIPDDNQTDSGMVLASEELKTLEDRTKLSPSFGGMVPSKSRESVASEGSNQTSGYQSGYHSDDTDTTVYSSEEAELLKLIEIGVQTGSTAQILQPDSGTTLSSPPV

CCOc1cc2ncnc(NC3=CC(=O)C(OCc4cccc(OC)c4)=CC3=O)c2cc1NC(=O)/C=C/CN(C)C
IC50 [1]: 1280 nM
IC50 [2]: 107 nM
IC50 [3]: 372 nM
IC50 [4]: 347 nM

CCOc1cc2ncnc(NC3=CC(=O)C(OCc4cccc(C)c4)=CC3=O)c2cc1NC(=O)/C=C/CN(C)C
IC50 [1]: 613 nM
IC50 [2]: 24.9 nM
IC50 [3]: 189 nM
IC50 [4]: 173 nM

CN(C)C/C=C/C(=O)Nc1ccc2ncnc(Nc3ccc(Br)cc3F)c2c1
IC50 [2]: < 10 nM
IC50 [4]: 704 nM

COCCOc1cc2ncnc(NC3=CC(=O)C(OCc4cccc(OC)c4)=CC3=O)c2cc1OC
IC50 [1]: 250 nM
IC50 [2]: 7710 nM
IC50 [3]: 50.2 nM
IC50 [4]: > 10000 nM

COCCOc1cc2ncnc(NC3=CC(=O)C(OCc4ccccc4)=CC3=O)c2cc1OC
IC50 [1]: 140 nM
IC50 [2]: > 10000 nM
IC50 [3]: 53.7 nM
IC50 [4]: > 10000 nM

CCOc1cc2ncnc(NC3=CC(=O)C(OC(CF)CF)=CC3=O)c2cc1NC(=O)/C=C/CN(C)C
IC50 [1]: 303 nM
IC50 [2]: 283 nM
IC50 [3]: 109 nM
IC50 [4]: 2090 nM

CCOc1cc2ncnc(NC3=CC(=O)C(OCc4ccc(F)c(F)c4)=CC3=O)c2cc1NC(=O)/C=C/CN(C)C
IC50 [1]: 550 nM
IC50 [2]: 167 nM
IC50 [3]: 112 nM
IC50 [4]: 894 nM

CCOc1cc2ncnc(NC3=CC(=O)C(OCc4ccccc4)=CC3=O)c2cc1NC(=O)/C=C/CN(C)C
IC50 [1]: 783 nM
IC50 [2]: 18.7 nM
IC50 [3]: 102 nM
IC50 [4]: 216 nM

CCOc1cc2ncnc(NC3=CC(=O)C(OCc4cccc(Cl)c4)=CC3=O)c2cc1NC(=O)/C=C/CN(C)C
IC50 [1]: 179 nM
IC50 [2]: 12.2 nM
IC50 [3]: 80.2 nM
IC50 [4]: 35.6 nM

CCOc1cc2ncnc(NC3=CC(=O)C(OCc4cccs4)=CC3=O)c2cc1NC(=O)/C=C/CN(C)C
IC50 [1]: 298 nM
IC50 [2]: 47.5 nM
IC50 [3]: 76.2 nM
IC50 [4]: 295 nM

COc1cc2ncnc(Nc3cccc(Br)c3)c2cc1OC
IC50 [1]: > 10000 nM
IC50 [3]: 1490 nM

COCCOc1cc2ncnc(NC3=CC(=O)C(OCc4cccc(F)c4)=CC3=O)c2cc1OC
IC50 [1]: 188 nM
IC50 [2]: > 10000 nM
IC50 [3]: 46.1 nM
IC50 [4]: > 10000 nM

CCOc1cc2ncnc(NC3=CC(=O)C(OCc4ccccn4)=CC3=O)c2cc1NC(=O)/C=C/CN(C)C
IC50 [1]: 1010 nM
IC50 [2]: 90.8 nM
IC50 [3]: 135 nM
IC50 [4]: 792 nM

CCOc1cc2ncnc(NC3=CC(=O)C(OC)=CC3=O)c2cc1NC(=O)/C=C/CN(C)C
IC50 [1]: 1400 nM
IC50 [2]: 799 nM
IC50 [3]: 379 nM
IC50 [4]: > 10000 nM

CCOc1cc2ncnc(NC3=CC(=O)C(OCc4cccc(F)c4)=CC3=O)c2cc1NC(=O)/C=C/CN(C)C
IC50 [1]: 348 nM
IC50 [2]: 4.1 nM
IC50 [3]: 113 nM
IC50 [4]: 43.1 nM

CCOc1cc2ncc(C#N)c(Nc3ccc(OCc4ccccn4)c(Cl)c3)c2cc1NC(=O)/C=C/CN(C)C [NERATINIB]
IC50 [1]: > 10000 nM
IC50 [3]: 858 nM

CCOc1cc2ncc(C#N)c(Nc3ccc(F)c(Cl)c3)c2cc1NC(=O)/C=C/CN(C)C [PELITINIB]
IC50 [1]: > 10000 nM
IC50 [3]: 3130 nM
